Experiments:
[1] = biological target: T1, hACSL5 (Homo sapiens (Human), UniProt Q9ULC5); test: Human ACSL5 coupled enzyme Amplex Red assay; format: biochemical; conditions: read-out: hACSL5 IC50
Summary of the method: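 Amplex Red coupled readout: 1 mM ATP, 25 μM oleate and 30 μM CoA were added to compound-preincubated enzyme (20 nM, residues 33-683, insect-cell expressed, His-tagged) with coupling peroxidase and acyl-CoA oxidase at pH 7.6. Signal was read at 535/590 nm after 10 minutes at 25° C., and Hill fits yielded half-maximal and maximal inhibition.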
Target sequence in this assay (Q9ULC5 33-683): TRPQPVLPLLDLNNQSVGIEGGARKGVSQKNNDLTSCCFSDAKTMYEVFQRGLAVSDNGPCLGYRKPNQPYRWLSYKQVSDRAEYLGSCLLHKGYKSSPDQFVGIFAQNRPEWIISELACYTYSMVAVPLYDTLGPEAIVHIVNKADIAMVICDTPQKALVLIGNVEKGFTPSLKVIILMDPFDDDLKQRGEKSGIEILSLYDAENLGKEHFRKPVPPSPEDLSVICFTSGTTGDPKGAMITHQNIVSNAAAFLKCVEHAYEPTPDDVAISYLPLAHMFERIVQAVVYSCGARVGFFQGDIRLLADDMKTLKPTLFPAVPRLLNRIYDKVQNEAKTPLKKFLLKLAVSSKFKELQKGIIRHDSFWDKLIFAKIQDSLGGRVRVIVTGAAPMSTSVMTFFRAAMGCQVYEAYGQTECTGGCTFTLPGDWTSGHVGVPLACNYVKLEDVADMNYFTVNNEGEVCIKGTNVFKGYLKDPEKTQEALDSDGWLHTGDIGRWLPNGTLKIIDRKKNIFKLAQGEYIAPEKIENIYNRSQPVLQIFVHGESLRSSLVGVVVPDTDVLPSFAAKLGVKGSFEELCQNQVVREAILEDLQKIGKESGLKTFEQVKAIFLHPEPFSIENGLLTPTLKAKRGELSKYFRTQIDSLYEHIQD

[2] = biological target: T1, hACSL5; test: Cell-based assay (CBA) with B12FA in hACSL5-transfected Expi293F / FlpIn TRex293 cells; conditions: hACSL5-expressing cells
Summary of the method: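 hACSL5-expressing Expi293F or tetracycline-induced FlpIn TRex293 cells, serum- and glucose-starved 1 h, then treated 3 h with serially diluted compound plus 20 µM B12FA. After fixation, 630/520 nm emission ratio (ex 485 nm) gave % inhibition versus no-inhibitor and 10 µM compound/non-induced controls; IC50 by Hill fit.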
Target sequence in this assay (Q9ULC5 whole entry, the tested form may be a part): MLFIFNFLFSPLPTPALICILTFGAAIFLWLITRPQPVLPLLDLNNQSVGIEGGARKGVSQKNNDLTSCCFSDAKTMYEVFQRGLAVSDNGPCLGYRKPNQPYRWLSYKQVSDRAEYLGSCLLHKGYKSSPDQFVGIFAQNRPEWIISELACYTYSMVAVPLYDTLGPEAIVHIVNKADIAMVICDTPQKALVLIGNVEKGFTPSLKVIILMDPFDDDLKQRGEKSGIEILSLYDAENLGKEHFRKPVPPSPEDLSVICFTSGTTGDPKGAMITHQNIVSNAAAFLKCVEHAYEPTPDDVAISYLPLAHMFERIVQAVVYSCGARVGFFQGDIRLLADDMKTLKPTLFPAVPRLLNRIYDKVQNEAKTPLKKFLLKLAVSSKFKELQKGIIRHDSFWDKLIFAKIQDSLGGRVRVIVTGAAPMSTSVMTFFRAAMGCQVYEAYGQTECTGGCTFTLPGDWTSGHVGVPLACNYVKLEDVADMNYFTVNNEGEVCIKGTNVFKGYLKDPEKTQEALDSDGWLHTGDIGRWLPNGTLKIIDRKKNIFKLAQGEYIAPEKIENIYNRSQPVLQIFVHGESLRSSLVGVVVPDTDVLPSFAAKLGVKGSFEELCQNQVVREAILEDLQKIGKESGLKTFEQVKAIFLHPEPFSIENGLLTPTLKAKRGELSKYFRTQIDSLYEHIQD

CC[C@@H](Oc1ccc(C(=O)NS(=O)(=O)c2ccc(OCCN(C)C)cc2)c(F)c1F)c1ccc(OCC2CC2)cn1 [Compound B, (R)-4-(1-(5-(cyclopropylmethoxy)pyridin-2-yl)propoxy)-N-((4-(2-(dimethylamino)ethoxy)phenyl)sulfonyl)-2,3-difluorobenzamide]
IC50 [1]: < 100 nM | IC50 [2]: 100 to 500 nM

CC[C@@H](Oc1ccc(C(=O)NS(=O)(=O)N2CCC(OCCN(C)C)CC2)c(F)c1F)c1ccc(Oc2ccccn2)cn1 [Compound C, (R)-N-((4-(2-(dimethylamino)ethoxy)piperidin-1-yl)sulfonyl)-2,3-difluoro-4-(1-(5-(pyridin-2-yloxy)pyridin-2-yl)propoxy)benzamide]
IC50 [1]: < 100 nM | IC50 [2]: 100 to 500 nM

CC[C@@H](Oc1ccc(C(=O)NS(=O)(=O)N2CCN(C)CC2)c(F)c1F)c1ccc(Oc2ccccn2)cn1 [Compound D, (R)-2,3-difluoro-N-((4-methylpiperazin-1-yl)sulfonyl)-4-(1-(5-(pyridin-2-yloxy)pyridin-2-yl)propoxy)benzamide]
IC50 [1]: < 100 nM | IC50 [2]: < 100 nM
